Measurements: patent US9108973B2, “3,5-disubstituted alkynylbenzene compound and salt thereof” (Taiho Pharmaceutical Co., Ltd., priority 2012, dated 2015)
Where two headings read alike, the source gives them in different places.

Molecular target: purified recombinant human FGFR2 protein (Homo sapiens (Human), UniProt P21802)
Assay: Measurement of inhibitory effect on FGFR2 kinase activity
Format: biochemical

Chain of purified recombinant human FGFR2 protein (P21802 22-821): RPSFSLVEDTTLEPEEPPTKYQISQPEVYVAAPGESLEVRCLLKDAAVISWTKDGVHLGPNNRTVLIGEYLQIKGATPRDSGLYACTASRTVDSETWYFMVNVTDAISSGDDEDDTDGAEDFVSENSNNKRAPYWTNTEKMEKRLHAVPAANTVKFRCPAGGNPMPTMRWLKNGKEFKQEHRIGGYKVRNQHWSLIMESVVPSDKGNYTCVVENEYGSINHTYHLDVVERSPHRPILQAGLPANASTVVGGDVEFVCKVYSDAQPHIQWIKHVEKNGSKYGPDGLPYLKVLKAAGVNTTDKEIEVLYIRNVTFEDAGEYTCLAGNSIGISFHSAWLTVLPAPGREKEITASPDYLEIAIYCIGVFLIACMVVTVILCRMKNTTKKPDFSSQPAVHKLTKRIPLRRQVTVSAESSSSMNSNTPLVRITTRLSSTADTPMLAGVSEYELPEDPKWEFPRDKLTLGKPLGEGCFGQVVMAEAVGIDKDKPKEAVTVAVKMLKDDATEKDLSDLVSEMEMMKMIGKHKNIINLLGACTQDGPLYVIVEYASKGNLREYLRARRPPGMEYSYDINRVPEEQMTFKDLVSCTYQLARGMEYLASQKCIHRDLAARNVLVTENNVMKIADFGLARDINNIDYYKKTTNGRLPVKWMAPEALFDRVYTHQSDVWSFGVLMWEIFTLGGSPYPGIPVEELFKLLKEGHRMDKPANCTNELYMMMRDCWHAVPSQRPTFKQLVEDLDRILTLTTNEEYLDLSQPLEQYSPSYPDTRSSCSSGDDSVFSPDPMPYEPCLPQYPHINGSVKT

IC50 (FGFR2 kinase, FL-Peptide 22 substrate, ATP 75 μM, 25° C. for 120 minutes) [µM] | Compound | IC50 [µM]
> 10 | CC(C)c1cc(C#Cc2nn([C@H]3CCN(C(=O)/C=C/CN(C)C)C3)c3ncnc(N)c23)cc(C(C)C)c1 [Ref. Ex. Compound 4, (S)-1-(3-(4-amino-3-((3,5-diisopropylphenyl)ethynyl)-1H-pyrazolo[3,4-d]pyrimidin-1-yl)pyrrolidin-1-yl)-4-(dimethylamino)but-2-en-1-one] | –
– | C=CC(=O)N1C[C@@H](n2cc(C#Cc3cc(OC)cc(OC)c3)c3c(N)ncnc32)C[C@H]1C(=O)OC [Ex. Compound 66, (2S,4S)-methyl 1-acryloyl-4-(4-amino-5-((3,5-dimethoxyphenyl)ethynyl)-7H-pyrrolo[2,3-d]pyrimidin-7-yl)pyrrolidine-2-carboxylate] | < 0.0003
